This note sets out measurements from patent US5691373A, “Nonpeptide endothelin antagonists I” (Warner-Lambert Company, priority 1995, dated 1997).

For assay [1], the target named is T1, human ETB receptor (Homo sapiens, UniProt P24530).
T1 construct: expressed in transfected cells; host or cells: CHO-K1 cells, pRc-CMW (so in the source) expression vector, electroporation; membranes used
T1 sequence (P24530 27-442): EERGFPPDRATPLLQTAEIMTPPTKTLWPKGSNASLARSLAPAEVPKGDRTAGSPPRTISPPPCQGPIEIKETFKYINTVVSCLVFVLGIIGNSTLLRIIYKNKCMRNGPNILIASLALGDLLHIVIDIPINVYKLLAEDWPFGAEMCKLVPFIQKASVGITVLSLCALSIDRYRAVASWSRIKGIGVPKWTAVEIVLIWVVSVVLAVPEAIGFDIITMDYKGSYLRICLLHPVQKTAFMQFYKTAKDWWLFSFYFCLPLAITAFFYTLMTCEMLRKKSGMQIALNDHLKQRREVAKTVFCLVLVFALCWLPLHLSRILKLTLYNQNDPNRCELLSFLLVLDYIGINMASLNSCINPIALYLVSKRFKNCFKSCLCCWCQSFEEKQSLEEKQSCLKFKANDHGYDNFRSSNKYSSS
Nature of the assay: ERBA-B: [125I]-ET-1 binding, recombinant human ETB receptor expressed in CHO-K1 cells. To be noted: human cloned ETB receptor, read-out: ERBA-B IC50, human cloned receptor data. Here is the method:
Count filters for radioactivity in gamma counter.
The above process has also been modified by using human recombinant CHO-K1 cells.
The tissue used for human ETB was recombinant human ETB receptor expressed in CHO-K1 cells (chinese hamster ovary cells). The gene for human ETB receptor was cloned and inserted into the pRc-CMW expression vector, then transfected into CHO-K1 cells by electroporation. For binding assays, membranes (0.7 mg protein) of CHO-K1 cells expressing recombinant human ETB receptor were used.
^d Human cloned receptor data

In assay [2] the target is T2, ETA (Oryctolagus cuniculus, UniProt A5A8K3).
T2 sequence (A5A8K3 21-427): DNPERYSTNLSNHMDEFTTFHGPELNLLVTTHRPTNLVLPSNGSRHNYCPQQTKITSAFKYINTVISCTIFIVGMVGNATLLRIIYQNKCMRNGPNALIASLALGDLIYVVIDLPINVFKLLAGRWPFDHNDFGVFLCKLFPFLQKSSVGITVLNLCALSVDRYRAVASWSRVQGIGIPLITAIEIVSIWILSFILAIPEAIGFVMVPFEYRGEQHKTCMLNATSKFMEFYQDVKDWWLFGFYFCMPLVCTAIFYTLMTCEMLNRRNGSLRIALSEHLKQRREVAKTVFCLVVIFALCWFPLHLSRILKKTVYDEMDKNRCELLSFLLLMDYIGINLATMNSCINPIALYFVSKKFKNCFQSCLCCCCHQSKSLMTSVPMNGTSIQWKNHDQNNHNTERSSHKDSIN
Description: The cells used were rabbit renal artery vascular smooth muscle cells grown in a 48-well dish (1 cm^2) (confluent cells).
The growth media was Dulbecco's Modified Eagles/Ham's F12 which contained 10% fetal bovine serum and antibiotics (penicillin/streptomycin/fungizone).
Second, remove the assay buffers, place the dish on ice, and add 150 μL of cold assay buffer described above to each well. […] Next, place dish in a 37° C., water bath for about 2 hours and gently agitate the dish every 15 minutes. Discard the radioactive incubation mixture in the sink and wash wells 3 times with 1 mL of cold phosphate buffered saline.

Where [3] appears, read: read-out: ERBA-A IC50, [125I]-ET-1, rabbit renal artery vascular smooth muscle cells.
[4] abbreviates: ERBA-A IC50, [125I]-ET-1, rabbit renal artery vascular smooth muscle cells.

Each structure is given as a SMILES string. Counter-ions that a name gives are not always drawn. Like-named read-outs stand apart in the source and are kept apart here. A value given as a limit tells only on which side of the number the result lay.

In the case of `COc1ccc(C2(O)OC(=O)C(c3ccc4c(c3)OCO4)=C2Cc2ccc(C(=O)NCCN3CCOCC3)cc2)cc1` (racemic) [Example 350, Benzamide, 4-[4-(1,3-benzodioxol-5-yl)-2,5-dihydro-2-hydroxy-2-(4-methoxyphenyl)-5-oxo-3-furanyl]methyl]-N-[2-(4-morpholinyl)ethyl]-, monohydrochloride, (±)-], the IC50 in assay [1] was over 2500 nM; in assay [2] (setting [3]), 290 nM.
On to `COc1ccc(C2(O)OC(=O)C(c3ccc4c(c3)OCO4)=C2Cc2ccc3c(c2)OCO3)cc1` (centres unmarked) [Example 87, 3-Benzo[1,3]dioxol-5-yl-4-benzo[1,3]dioxol-5-ylmethyl-5-hydroxy-5-(4-methoxyphenyl)-5H-furan-2-one], for which the IC50 was determined as 1500 nM in assay [1] and 63 nM in assay [2] (setting [4]).
The like results for `CCC1=C(c2ccc3c(c2)OCO3)C(=O)OC1(O)c1ccc(OC)cc1` (centres unmarked) [Example 91, 3-Benzo[1,3]dioxol-5-yl-4-ethyl-5-hydroxy-5-(4-methoxyphenyl)-5H-furan-2-on] were, in that order, 15000 nM and 530 nM.
The like results for `COc1ccc(C2(O)OC(=O)C(c3ccc(OC)cc3OC)=C2Cc2ccccc2)cc1` (centres unmarked) [Example 113, 4-Benzyl-3-(2,4-dimethoxyphenyl)-5-hydroxy-5-(4-mehoxyphenyl)-5H-furan-2-one] were, in that order, 25000 nM and 300 nM.
The like results for `COc1ccc(CC2=C(c3ccc(Cl)c(Cl)c3)C(=O)OC2(O)c2ccc(OC)cc2)cc1` (centres unmarked) [Example 117, 3-(3,4-Dichlorophenyl)-5-hydroxy-4-(4-methoxybenzyl)-5-(4-methoxyphenyl)-5H -furan-2-one] were, in that order, 2700 nM and 310 nM.
`COc1ccc(C2(O)OC(=O)C(c3cc(OC)cc(OC)c3)=C2Cc2cccc(F)c2)cc1` (centres unmarked) [Example 129, 3-(3,5-Dimethoxphenyl)-4-(3-fluorobenzyl)-5-hydroxy-5-(4-methoxyphenyl)-5H-furan-2-one]: the IC50 in assay [1] worked out at 2300 nM; in assay [2] (setting [4]) it was 72 nM.
The like results for `COc1ccc(C2(O)OC(=O)C(c3cc(OC)cc(OC)c3)=C2Cc2cc(Cl)cc(Cl)c2)cc1` (centres unmarked) [Example 132, 4-(3,5-Dichlorobenzyl)-3-(3,5-dimethoxyphenyl)-5-hydroxy-5-(4-methoxyphenyl)-5H-furan-2-one] were, in that order, 2750 nM and 70 nM.
The like results for `COc1ccc(C2(O)OC(=O)C(c3ccc4c(c3)OCO4)=C2Cc2cncc3ccccc23)cc1` (centres unmarked) [Example 161, 3-Benzo[1,3]dioxol-5-yl-5-hydroxy-4-isoquinolin-4-ylmethyl-5-(4-methoxyphenyl)-5H-furan-2-one] were, in that order, 3200 nM and 40 nM.
In the same order, the values of `COc1ccc(C2(O)OC(=O)C(c3ccc4c(c3)OCO4)=C2Cc2ccc(-c3ccccc3)cc2)cc1` (centres unmarked) [Example 162, 3-Benzo[1,3]dioxol-5-yl-4-biphenyl-4-ylmethyl-5-hydroxy-5-(4-methoxyphenyl) -5H-furan-2-one] are 1900 nM and 390 nM.
On to `COc1ccc(C(=O)/C(Cc2ccc(OC)c(C)c2)=C(\C(=O)O)c2ccc3c(c2)OCO3)cc1` [Example 172, 2-Butenoic acid, 2-(1,3-benzodioxol-5-yl)-3-[(4-methoxy-3-methylphenyl)methyl]-4-(4-methoxyphenyl)-4-oxo-, (Z)-, ion(1-) compd. with 2-hydroxy-N,N,N-trimethylethanaminium (1:1)], for which the figures for the IC50 in assay [1] and in assay [2] (setting [3]) were over 2500 nM and 7200 nM, respectively.
As to `CC(C)Oc1ccc(C2(O)OC(=O)C(c3ccc4c(c3)OCO4)=C2Cc2ccccc2)cc1` (centres unmarked) [Example 204, 3-Benzo[1,3]dioxol-5-yl-4-benzyl-5-hydroxy-5-(4-isopropoxyphenyl)-5H-furan-2-one], the IC50 stood at 10000 nM in assay [1] and 1050 nM in assay [2] (setting [4]).
The like results for `O=C1OC(O)(c2ccc(OCc3ccccc3)cc2)C(Cc2ccccc2)=C1c1ccc2c(c1)OCO2` (centres unmarked) [Example 208, 3-Benzo[1,3]dioxol-5-yl-4-benzyl-5-(4-benzyloxyphenyl)-5-hydroxy-5H-furan-2-one] were, in that order, 5400 nM and 1200 nM.
In the same order, the values of `O=C1OC(O)(c2cccc(Cl)c2)C(Cc2ccccc2)=C1c1ccc2c(c1)OCO2` (centres unmarked) [Example 235, 3-Benzo[1,3]dioxol-5-yl-4-benzyl-5-(3-chlorophenyl)-5-hydroxy-5H-furan-2-one] are over 2500 nM and 670 nM.
In the same order, the values of `O=C1OC(O)(c2ccc3c(c2)OCO3)C(Cc2ccccc2)=C1c1ccc2c(c1)OCO2` (centres unmarked) [Example 245, 3,5-Bis-benzo[1,3]dioxol-5-yl-4-benzyl-5-hydroxy-5H-furan-2-one] are 2000 nM and 110 nM.
Regarding `COc1ccc(C2(O)OC(=O)C(c3ccc4c(c3)OCO4)=C2Cc2cc(C)c(OC)cc2C)cc1` (centres unmarked) [Example 251, 3-Benzo[1,3]dioxol-5-yl-5-hydroxy-4-(4-methoxy-2,5-dimethylbenzyl)-5-(4-methoxyphenyl)-5H-furan-2-one], the IC50 is over 2500 nM in assay [1] and 6 nM in assay [2] (setting [4]).
On to `C=CCOc1cc(CC2=C(c3ccc4c(c3)OCO4)C(=O)OC2(O)c2ccc(OC)cc2OC)ccc1OC` (centres unmarked) [Example 255, 4-(3-Allyloxy-4-methoxybenzyl)-3-benzo[1,3]dioxol-5-yl-5-(2,4-dimethoxyphenyl)-5-hydroxy-5H-furan-2-one], for which the IC50 in assay [1] turned out to be 1400 nM; in assay [2] (setting [4]) it was 8.3 nM.
For the compound `COc1ccc(C2(O)OC(=O)C(c3ccc(OC)c(OC)c3)=C2Cc2ccccc2)cc1` (centres unmarked) [Example 261, 4-Benzyl-3-(3,4-dimethoxyphenyl)-5-hydroxy-5-(4-methoxyphenyl)-5H-furan-2-one], the results for the IC50 in assay [1] and in assay [2] (setting [4]) were 3900 nM and 160 nM, respectively.
Consider `COc1ccc(C2(O)OC(=O)C(c3cc(OC)cc(OC)c3)=C2Cc2cccc(C(=O)O)c2)cc1` (centres unmarked) [Example 267, 3-[4-(3,5-Dimethoxyphenyl)-2-hydroxy-2-(4-methoxyphenyl)-5-oxo-2,5-dihydrof uran-3-ylmethyl]benzoic acid], for which the IC50 in assay [1] was over 2500 nM; in assay [2] (setting [4]), 710 nM.
The like results for `COc1ccc(C2(O)OC(=O)C(c3cc(OC)cc(OC)c3)=C2Cc2ccc(OC)c(C)c2)cc1` (centres unmarked) [Example 272] were, in that order, 760 nM and 6.4 nM.
Regarding `COc1ccc(C2(O)OC(=O)C(c3cc(OC)cc(OC)c3)=C2Cc2ccc(Cl)cc2)cc1` (centres unmarked) [Example 274], the values for the IC50 in assay [1] and in assay [2] (setting [3]) were over 2500 nM and 140 nM, respectively.
In the case of `COC(=O)c1cccc(CC2=C(c3ccc4c(c3)OCO4)C(=O)OC2(O)c2ccc(OC)cc2)c1` (centres unmarked) [Example 286, Benzoic acid, 3-[[4-(1,3-benzodioxol-5-yl)-2,5-dihydro-2-hydroxy-2-(4-methoxyphenyl)-5-oxo-3-furanyl]methyl]-, methyl ester], the IC50 in assay [1] was found to be 6000 nM; in assay [2] (setting [4]), 4.6 nM.
The like results for `COC(=O)Cc1ccc(CC2=C(c3ccc4c(c3)OCO4)C(=O)OC2(O)c2ccc(OC)cc2)cc1` (centres unmarked) [Example 291, {4-[4-Benzo[1,3]dioxol-5-yl-2-hydroxy-2-(4-methoxyphenyl)-5-oxo-2,5-dihydro-furan-3-ylmethyl]-phenyl}-acetic acid methyl ester] were, in that order, 1400 nM and 40 nM.
